According to publication PMC5913254, “A novel in vitro metric predicts in vivo efficacy of inhaled silver-based antimicrobials in a murine Pseudomonas aeruginosa pneumonia model” (Scientific Reports, 2018):

Assays:
[1] = tested on: immortalized human bronchial epithelial cells (16HBE); assay: alamarBlue cytotoxicity assay against 16HBE cells (in vitro LD50); type: cell-based; settings: 24 h
Protocol: (§1) 16HBEs (16HBE14o-), generously provided by Dr. D. Gruenert (University of California, San Francisco, CA) are a human bronchial epithelial cell line transformed with SV40 large T-antigen using the replication-defective pSVori plasmid. 16HBEs were used as a model to determine the relative toxicities of the SCCs to airway cells. Cells between passages 20 to 35 were cultured in Minimum Essential Medium with Earle’s Balanced Salts (Sigma Aldrich) and non-essential amino acids supplemented with penicillin-streptomycin (1%), L-glutamine (1%), and foetal bovine serum (10%). Additionally, primary human dermal fibroblasts (HDFs) were also utilized for in vitro toxicity studies. HDFs at passage 4 were generously donated by Carol Tamminga, M.D. (University of Texas Southwestern Medical Center, Dallas, TX). HDFs were cultured in Dulbecco’s Modified Eagle Medium (Sigma Aldrich) supplemented with penicillin-streptomycin (1%), L-glutamine (1%), and foetal bovine serum (10%) and were utilized between passage 7 to 14 for in vitro toxicity studies. 16HBE and HDF cultures were assessed for bacterial contamination visually, while mycoplasma contamination was assessed both visually and through a PCR-based Universal Mycoplasma Detection Kit assay (ATCC® 30-1012K^TM).
(§2) 16HBEs and HDFs grown to confluency (90–95%) as described above were sub-cultured, re-suspended in the appropriate medium, and seeded in wells of clear 96-well plate(s) at either 25,000 cells/well (16HBEs) or 15,000 cells/well (HDFs) with 100 µL of feeding media and incubated over 24 hours at 37 °C, 5% CO2, and 100% RH. The cells were then washed once with sterile phosphate buffered saline (PBS, pH = 7.4) and 100 µL of SCCs or the Ag-PPE-SCKs at various concentrations in OPTI-MEM® (Invitrogen) with 3.3% (v/v) DMSO, or without for the Ag-PPE-SCKs, was added to the cells. Next, 10 µL of alamarBlue® (Invitrogen) was added to each well and the plates were re-incubated for 24 h. Finally, the plates were measured for optical density at 570 and 600 nm with a spectrophotometer (POLARstar Omega, BMG Labtech or Cytation 5, BioTek). Untreated cells and media only (with alamarBlue®) were used as controls. […] The relative viabilities of the cells were determined as per the manufacturer’s instructions and using GraphPad Prism® software to generate a non-linear curve fit and interpolate the in vitro LD50 for each SCC. This assay was performed with three technical replicates for each SCC and Ag-PPE-SCK dose and biological replicates were performed in quadruplicate on separate days (3 technical replicates × 4 biological replicates = 12 total replicates). The DEM for each SCC was determined as the ratio of the molar LD50 and MBC concentrations (LD50/MBC).

[2] = tested on: Pseudomonas aeruginosa (PA M57-15); assay: Murine P. aeruginosa acute lung infection model, nebulized treatment; type: in vivo, mouse; settings: for survival: 25 µmol Ag+ per dose nebulized, 5 doses, sham 9.1%; for survival / survival compared with sham treatment: 90:10 DH2O:DMSO, head-to-head of four SCCs; for clinical illness score (signs of illness): 25 µmol per dose nebulized with DMSO, SCC1 and SCC22: at 24 hours following infection, scorers not blinded; for survival compared with sham treatment: 25 µmol per dose nebulized
Protocol: Weight-matched male C57BL/6 J mice aged 6–8 weeks were used for all acute lung infection studies, which were approved by the University of Texas Southwestern Medical Center Institutional Animal Care and Use Committee (IACUC). All experiments were performed in accordance with relevant guidelines and regulations. Animals were housed in a barrier facility under pathogen-free conditions until they were inoculated with bacteria. The previously described clinical mucoid strain of Pseudomonas aeruginosa (PA M57-15) grown to mid-log phase (OD650 = 0.4) in Luria broth (LB) was used for all pulmonary infection experiments. The density of the bacterial culture (CFU/mL) was determined using serial dilution and plating for each experiment.
Mice were anesthetized by intraperitoneal administration of a ketamine (60 mg/kg) and xylazine (8 mg/kg) cocktail, intranasally inoculated using 75 µL of the bacterial inoculum (~1 × 10^6 CFU per mouse), and assigned randomly into treatment groups. Treatment was administered at 1-hour post-inoculation and again every 12 hours thereafter up to a 5th dose at 49 hours via nebulization of 5 mL of SCC solutions (containing 25 µmol total Ag^+ cation per dose for each SCC) or sham treatment. For the head-to-head comparison of unencapsulated SCC1, SCC22, SCC23, and SCC28, all SCCs were dissolved in a 90:10 (v/v) mixture of DH2O and DMSO; whereas, the sham treatment consisted of 90:10 DH2O: DMSO, but with dilute phosphate buffer (1 mM Na2HPO4, 0.2 mM KH2PO4) incorporated to provide tonicity for nebulization. For the dose-response studies with unencapsulated SCC1 and SCC22, 5 mL of SCCs dissolved in DH2O alone or 90:10 (v/v) mixture of DH2O and DMSO was nebulized to provide a total dose of 25, 50, or 100 µmol Ag^+ cation per dose for each SCC. Nebulization of the SCCs was achieved using a previously described experimental setup comprising of an Aeroneb Lab apparatus connected to a multi-dosing chamber. Throughout each study, the mice were monitored constantly and times of death were recorded. Every 24 hours, the mice were weighed and assigned cumulative clinical illness scores (0–6) based on their resting posture (0–2), condition of their fur (0–1), and overall activity level (0–3), with higher scores indicating more severe illness. The investigators assigning the scores were not blinded to the treatment group, which is a limitation of this study. The survival studies were all performed in duplicate with results pooled.
In vivo efficacy testing of the silver loaded, polyphosphoester, shell-crosslinked, knedel-like nanoparticles (Ag-PPE-SCKs) was carried out in a similar manner as with the SCCs. Ag-PPE-SCKs were suspended in 5 mL DH2O to a concentration of ~5 mM silver, as previously determined by mass spectrometry, and empty PPE-SCKs were suspended corresponding to the same mass of polymer. SCC1, a comparator treatment, was similarly dissolved to 5 mM in 5 mL DH2O, and sham consisted of the DH2O:phosphate buffer solution used in the other studies. The infection model was carried out as before; however, the Ag-PPE-SCKs and PPE-SCKs were dosed at 1 and 25 hours post-infection with the nanoparticles and given sham treatment at 13, 37, and 49 hours. SCC1 and sham treatment groups were dosed at all five time points. Survival studies were performed twice and pooled, though SCC1 was only used in one of the survival studies.

[3] = tested on: primary human dermal fibroblasts (HDFs); assay: alamarBlue cytotoxicity assay against HDFs (in vitro LD50); type: cell-based; settings: 24 h
Protocol: as §1, §2

[4] = 100 µmol, DMSO-free formulation

SMILES	LD50 [1] [µM]	survival [2] [%]	clinical illness score (signs of illness) [2]	survival advantage compared with sham treatment ([2]; 25 µmol, DMSO-free formulation) [%]	survival advantage compared with sham treatment ([2]; 25 µmol, with DMSO) [%]	survival advantage compared with sham treatment ([2]; 50 µmol, DMSO-free formulation) [%]	survival advantage compared with sham treatment [2, 4] [%]	survival advantage compared with sham treatment ([2]; 100 µmol, with DMSO)	survival advantage compared with sham treatment ([2]; ~5 mM silver in 5 mL DH2O nebulized, Ag-PPE-SCKs dosed at 1 and 25 h, SCC1 at all five time points) [%]	LD50 [3] [µM]	survival compared with sham treatment [2]	survival advantage compared with sham treatment ([2]; 50 µmol, with DMSO) [%]
CC(=O)[O][Ag][c]1n(C)c2c(c(=O)n(C)c(=O)n2C)[n+]1C [SCC1]	297	25	significantly lower signs of illness	58	42	64	73	17%	50	25.8	–	–
CC(=O)[O][Ag][c]1n(Cc2ccc3ccccc3c2)c(Cl)c(Cl)[n+]1Cc1ccc2ccccc2c1 [SCC23]	14.7	–	appeared the most infirm at each time-point	–	–	–	–	–	–	14.2	significantly lower survival	–
CC(=O)[O][Ag][c]1n(CCCO)c(Cl)c(Cl)[n+]1C [SCC22]	224	42	significantly lower signs of illness	25	58	67	67	did not yield any survival advantage	–	22.7	–	50
CCCCCCn1c(Cl)c(Cl)[n+](Cc2ccc3ccccc3c2)[c]1[Ag][O]C(C)=O [SCC28]	58.1	–	–	–	–	–	–	–	–	9.8	significantly lower survival	–
